Measurements from BindingDB's records for patent US20240174690 (Boehringer Ingelheim International, 2024).

Biological target: GTPase KRas [G12C,C51S,C80L,C118S] (Homo sapiens, UniProt P01116, C118S/C51S/C80L/G12C)
Assay: AlphaScreen Binding Assay
From the text: […]

Chain of GTPase KRas [G12C,C51S,C80L,C118S] (P01116 whole entry G12C/C51S/C80L/C118S, looked up): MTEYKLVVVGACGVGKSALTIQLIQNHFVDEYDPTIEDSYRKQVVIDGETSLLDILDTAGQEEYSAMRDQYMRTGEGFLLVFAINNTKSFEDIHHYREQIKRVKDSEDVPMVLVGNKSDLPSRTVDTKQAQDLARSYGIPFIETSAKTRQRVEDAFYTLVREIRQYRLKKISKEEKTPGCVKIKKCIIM

An IC50 of 4 nM was found for C[C@H](Oc1cc(-n2nccc2-c2ccncc2)nc(-c2noc3c2CCC[C@@]32CCCc3sc(N)c(C#N)c32)n1)[C@@H]1CCCN1C [US20240174690, Example II-131] in this work.
